{
  "source": "patent US11613686B2",
  "about": "“Associative copolymers with hydrophobic quaternized (meth)acrylamide and (meth)acrylic acid derivatives” (BASF SE, priority 2018, dated 2023)",
  "assay": "Solubility tests of monomer 1 in the monomer solution with auxiliary surfactants (additives)",
  "format": "physicochemical",
  "experimental": "In order to solubilize monomer 1 the monomer was first dissolved in ethanol and then added to the monomer solution. This approach is used for AIBN, which has a low solubility in the monomer solution, too. […] Therefore, the use of auxiliary surfactants (additives) was tested.\nThese tests were done in first instance with 0.1 mol % of 1-4.",
  "data": [
    {"smiles": "C=C(C)C(=O)NCCC[N+](C)(C)CCCCCCCCCCCC", "note": "[Monomer 1]", "values": [
      {"measurement": "Result (solubility of monomer 1)", "setting": "Additive 1 Aromox C/12 2-20 eq, additive 2 Disponil A 1080 0-5 eq, same recipe", "result": "Not soluble***"},
      {"measurement": "Result (solubility of monomer 1)", "setting": "Additive 1 Aromox MCD 2-20 eq, additive 2 Disponil A 1080 0-5 eq, same recipe", "result": "Not soluble***"},
      {"measurement": "Result (solubility of monomer 1)", "setting": "Additive 1 C14TAB 2-20 eq, additive 2 Disponil A 1080 0-5 eq, same recipe", "result": "Not soluble***"},
      {"measurement": "Result (solubility of monomer 1)", "setting": "Additive 1 Dehyquart E-CA 2-20 eq, additive 2 Disponil A 1080 0-5 eq, same recipe", "result": "Not soluble***"},
      {"measurement": "Result (solubility of monomer 1)", "setting": "Additive 1 Deriphat 160 C 2-20 eq, additive 2 Disponil A 1080 0-5 eq, same recipe", "result": "Not soluble***"},
      {"measurement": "Result (solubility of monomer 1)", "setting": "Additive 1 Disponil A 1080 2-20 eq, no additive 2, same recipe", "result": "Partly dissolved"},
      {"measurement": "Result (solubility of monomer 1)", "setting": "Additive 1 Glucopon 225DK 2-20 eq, additive 2 Disponil A 1080 0-5 eq, same recipe", "result": "Not soluble***"},
      {"measurement": "Result (solubility of monomer 1)", "setting": "Additive 1 Lutensol AO 11 2-20 eq, additive 2 Disponil A 1080 0-5 eq, same recipe", "result": "Not soluble***"},
      {"measurement": "Result (solubility of monomer 1)", "setting": "Additive 1 Lutensol AT 18 2-20 eq, additive 2 Disponil A 1080 0-5 eq, same recipe", "result": "Not soluble***"},
      {"measurement": "Result (solubility of monomer 1)", "setting": "Additive 1 Lutensol TO 129 2-20 eq, additive 2 Disponil A 1080 0-5 eq, same recipe", "result": "Not soluble***"},
      {"measurement": "Result (solubility of monomer 1)", "setting": "Additive 1 Lutensol XP 100 2-20 eq, additive 2 Disponil A 1080 0-5 eq, same recipe", "result": "Not soluble***"},
      {"measurement": "Result (solubility of monomer 1)", "setting": "Additive 1 SDS 2-20 eq, additive 2 Disponil A 1080 0-5 eq, same recipe", "result": "Not soluble***"},
      {"measurement": "Result (solubility of monomer 1)", "setting": "Additive 1 Texapon NSO 2-20 eq, additive 2 Disponil A 1080 0-5 eq, same recipe", "result": "Not soluble***"},
      {"measurement": "Result (solubility of monomer 1)", "setting": "no additive, recipe 27 mol % sodium acrylate, 72.9 mol % acrylamide, 0.1 mol % 1", "result": "Not soluble***"}
    ]}
  ]
}
